Test results taken from US8129371B2, “Thienopyrimidine and pyrazolopyrimidine compounds and their use as mTOR kinase and PI3 kinase inhibitors” (Wyeth LLC, priority 2007, dated 2012).
pIC50: −log10 of the molar value.

Tests used:
[1] = molecular target: T1, Human mTOR (FLAG-TOR) (Homo sapiens, UniProt P42345); test: Human mTOR kinase assay with purified enzyme, DELFIA format; type: biochemical; conditions: purified human mTOR enzyme, DELFIA format
T1 construct: FLAG
How it was run: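 Purified FLAG-mTOR in HEPES pH 7.4 buffer with 10 mM MnCl2 was preincubated with inhibitor and reacted 2 h at room temperature with His6-S6K substrate, then stopped with EDTA/EGTA. Phospho-T389 S6K detected by DELFIA with Eu-labelled antibody (40 ng/mL) after plate capture; inhibition computed from signal.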

[2] = molecular target: T2, PI3K (Homo sapiens, UniProt P42336); test: Fluorescence polarization assay for PI3K; type: biochemical; conditions: PI3 Kinase α isoform, fluorescence polarization; read-out: PI3 Kinase α IC50
T2 construct: PI3 Kinase α IC50; other: PI3 Kinase α; other: PI3 Kinase α isoform, fluorescence polarization
How it was run: (§1)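 PI3K was preincubated with compound (final DMSO 1%), and the reaction was started with PIP2/ATP substrate and run 30–60 min. It was stopped with a detector mix giving 10 nM red probe and 70 nM GST-GRP.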

[3] = molecular target: T3, PI3K (Homo sapiens, UniProt P48736); test: Fluorescence polarization assay for PI3K; type: biochemical; conditions: PI3 Kinase γ isoform, fluorescence polarization; read-out: PI3 Kinase γ IC50
T3 construct: PI3 Kinase γ IC50; other: PI3 Kinase γ; other: PI3 Kinase γ isoform, fluorescence polarization
How it was run: as §1

[4] = system: prostate line LNCap; test: In vitro cell culture growth assay (MTS), LNCap; type: cell-based; conditions: Homo sapiens, LNCaP, 72 h, LNCap cells, three days after drug treatment
How it was run: (§2)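 Plate cells; add inhibitors on day 1; after 3 days' treatment, add MTS; read A490; express as percent growth of vehicle-treated control.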

[5] = system: breast line MDA468; test: In vitro cell culture growth assay (MTS), MDA468; type: cell-based; conditions: Homo sapiens, 72 h, MDA468 cells, three days after drug treatment
How it was run: as §2

T3 sequence (P48736 whole entry, canonical isoform): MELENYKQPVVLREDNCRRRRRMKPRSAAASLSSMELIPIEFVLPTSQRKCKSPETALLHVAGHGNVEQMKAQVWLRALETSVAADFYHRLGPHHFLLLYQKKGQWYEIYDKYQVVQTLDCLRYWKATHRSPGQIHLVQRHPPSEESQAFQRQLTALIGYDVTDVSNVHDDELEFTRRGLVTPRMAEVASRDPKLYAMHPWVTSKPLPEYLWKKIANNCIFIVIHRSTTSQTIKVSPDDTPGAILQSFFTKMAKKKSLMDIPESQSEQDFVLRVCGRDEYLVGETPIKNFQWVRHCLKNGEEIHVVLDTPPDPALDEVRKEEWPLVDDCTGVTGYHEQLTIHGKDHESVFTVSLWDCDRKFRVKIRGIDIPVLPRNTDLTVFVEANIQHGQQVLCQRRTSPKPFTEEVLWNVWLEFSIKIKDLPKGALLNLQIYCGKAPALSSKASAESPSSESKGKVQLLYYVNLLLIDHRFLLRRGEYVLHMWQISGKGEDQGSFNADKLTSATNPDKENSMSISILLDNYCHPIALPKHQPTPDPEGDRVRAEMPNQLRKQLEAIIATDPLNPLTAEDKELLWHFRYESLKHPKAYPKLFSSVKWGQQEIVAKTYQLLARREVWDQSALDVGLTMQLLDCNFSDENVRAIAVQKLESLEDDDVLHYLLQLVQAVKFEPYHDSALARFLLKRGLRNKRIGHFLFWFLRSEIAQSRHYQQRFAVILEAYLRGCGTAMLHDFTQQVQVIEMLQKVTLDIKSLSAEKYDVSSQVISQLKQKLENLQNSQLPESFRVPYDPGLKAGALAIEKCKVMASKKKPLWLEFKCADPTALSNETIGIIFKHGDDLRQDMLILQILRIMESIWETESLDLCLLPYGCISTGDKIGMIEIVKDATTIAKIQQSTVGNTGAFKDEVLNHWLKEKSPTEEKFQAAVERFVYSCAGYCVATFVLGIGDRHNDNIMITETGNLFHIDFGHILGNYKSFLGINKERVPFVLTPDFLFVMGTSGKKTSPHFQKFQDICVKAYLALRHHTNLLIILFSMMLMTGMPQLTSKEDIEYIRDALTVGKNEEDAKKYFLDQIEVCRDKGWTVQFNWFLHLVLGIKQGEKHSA
T2 sequence (P42336 whole entry, canonical isoform): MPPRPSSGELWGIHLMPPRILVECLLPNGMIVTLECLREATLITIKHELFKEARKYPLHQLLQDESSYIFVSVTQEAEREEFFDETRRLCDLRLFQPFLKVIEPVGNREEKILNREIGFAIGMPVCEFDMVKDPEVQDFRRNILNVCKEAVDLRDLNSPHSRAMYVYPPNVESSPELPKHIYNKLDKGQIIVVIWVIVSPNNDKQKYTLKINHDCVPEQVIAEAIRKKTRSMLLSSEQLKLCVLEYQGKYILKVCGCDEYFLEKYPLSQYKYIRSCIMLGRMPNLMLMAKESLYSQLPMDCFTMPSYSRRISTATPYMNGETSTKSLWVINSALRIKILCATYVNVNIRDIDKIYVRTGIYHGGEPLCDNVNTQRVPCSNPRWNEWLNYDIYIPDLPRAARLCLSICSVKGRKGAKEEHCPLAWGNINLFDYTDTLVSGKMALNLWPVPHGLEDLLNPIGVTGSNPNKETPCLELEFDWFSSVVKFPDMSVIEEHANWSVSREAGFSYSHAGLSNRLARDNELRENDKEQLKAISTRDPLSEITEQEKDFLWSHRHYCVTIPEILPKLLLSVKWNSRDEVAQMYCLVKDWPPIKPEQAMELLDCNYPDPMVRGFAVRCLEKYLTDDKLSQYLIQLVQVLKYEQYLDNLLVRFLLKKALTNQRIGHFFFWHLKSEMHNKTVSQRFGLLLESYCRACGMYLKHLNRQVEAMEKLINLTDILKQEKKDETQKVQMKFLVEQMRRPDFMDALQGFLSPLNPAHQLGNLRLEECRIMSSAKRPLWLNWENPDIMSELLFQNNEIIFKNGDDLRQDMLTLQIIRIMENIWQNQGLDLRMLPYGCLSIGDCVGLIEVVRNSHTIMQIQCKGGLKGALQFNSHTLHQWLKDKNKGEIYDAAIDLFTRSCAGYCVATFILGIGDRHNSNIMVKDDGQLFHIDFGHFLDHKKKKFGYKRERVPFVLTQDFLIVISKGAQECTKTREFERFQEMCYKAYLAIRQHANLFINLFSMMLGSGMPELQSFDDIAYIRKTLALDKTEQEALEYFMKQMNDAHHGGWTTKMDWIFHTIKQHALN

| SMILES | pIC50 [1] | pIC50 [2] | pIC50 [3] | pIC50 [4] | pIC50 [5] |
| --- | --- | --- | --- | --- | --- |
| CCn1nc(C(O)CO)c2c(N3CC4CCC(C3)O4)nc(-c3ccc(NC(=O)NC)cc3)nc21 (centres unmarked) [Example 351, 1-{4-[3-(1,2-dihydroxyethyl)-1-ethyl-4-(8-oxa-3-azabicyclo[3.2.1]oct-3-yl)-1H-pyrazolo[3,4-d]pyrimidin-6-yl]phenyl}-3-methylurea] | 8.05 | 5.61 | < 5.00 | 5.98 | 5.80 |
| CCn1nc(C=O)c2c(N3CC4CCC(C3)O4)nc(-c3ccc(NC(=O)NC)cc3)nc21 [Example 352, 1-{4-[1-ethyl-3-formyl-4-(8-oxa-3-azabicyclo[3.2.1]oct-3-yl)-1H-pyrazolo[3,4-d]pyrimidin-6-yl]phenyl}-3-methylurea] | 7.76 | 5.97 | 5.21 | 6.70 | 6.15 |
| CCn1nc(CN2CCN(C)CC2)c2c(N3CC4CCC(C3)O4)nc(-c3ccc(NC(=O)NC)cc3)nc21 [Example 353, 1-(4-{1-ethyl-3-[(4-methylpiperazin-1-yl)methyl]-4-(8-oxa-3-azabicyclo[3.2.1]oct-3-yl)-1H-pyrazolo[3,4-d]pyrimidin-6-yl}phenyl)-3-methylurea] | 7.82 | 5.81 | < 5.00 | 6.15 | 5.92 |
| CCn1nc(CN2CCCC2)c2c(N3CC4CCC(C3)O4)nc(-c3ccc(NC(=O)NC)cc3)nc21 [Example 354, 1-{4-[1-ethyl-4-(8-oxa-3-azabicyclo[3.2.1]oct-3-yl)-3-(pyrrolidin-1-ylmethyl)-1H-pyrazolo[3,4-d]pyrimidin-6-yl]phenyl}-3-methylurea] | 7.18 | 5.62 | < 5.00 | 5.92 | 5.54 |
| COC(=O)N1CCC(n2ncc3c(N4C5CCC4COC5)nc(-c4ccc(NC(=O)OCCO)cc4)nc32)CC1 [Example 355, methyl 4-[6-(4-{[(2-hydroxyethoxy)carbonyl]amino}phenyl)-4-(3-oxa-8-azabicyclo[3.2.1]oct-8-yl)-1H-pyrazolo[3,4-d]pyrimidin-1-yl]piperidine-1-carboxylate] | 9.11 | 5.13 | 5.17 | 7.24 | 6.66 |
| CNC(=O)Nc1ccc(-c2nc(N3C4CCC3COC4)c3cnn(C4CCN(C(=O)OC)CC4)c3n2)cc1 [Example 356, methyl 4-[6-{4-[(methylcarbamoyl)amino]phenyl}-4-(3-oxa-8-azabicyclo[3.2.1]oct-8-yl)-1H-pyrazolo[3,4-d]pyrimidin-1-yl]piperidine-1-carboxylate] | 9.66 | 5.37 | 5.17 | 7.52 | 7.30 |
| CCNC(=O)Nc1ccc(-c2nc(N3C4CCC3COC4)c3cnn(C4CCN(C(=O)OC)CC4)c3n2)cc1 [Example 357, methyl 4-[6-{4-[(ethylcarbamoyl)amino]phenyl}-4-(3-oxa-8-azabicyclo[3.2.1]oct-8-yl)-1H-pyrazolo[3,4-d]pyrimidin-1-yl]piperidine-1-carboxylate] | 9.20 | 5.26 | 5.04 | 8.05 | 7.15 |
| COC(=O)N1CCC(n2ncc3c(N4C5CCC4COC5)nc(-c4ccc(NC(=O)NCCF)cc4)nc32)CC1 [Example 358, methyl 4-[6-(4-{[(2-fluoroethyl)carbamoyl]amino}phenyl)-4-(3-oxa-8-azabicyclol[3.2.1]oct-8-yl)-1H-pyrazolo[3,4-d]pyrimidin-1-yl]piperidine-1-carboxylate] | 9.31 | 5.11 | 5.10 | 8.22 | 7.46 |
| COC(=O)N1CCC(n2ncc3c(N4C5CCC4COC5)nc(-c4ccc(NC(=O)NC5CC5)cc4)nc32)CC1 [Example 359, methyl 4-[6-{4-[(cyclopropylcarbamoyl)amino]phenyl}-4-(3-oxa-8-azabicyclo[3.2.1]oct-8-yl)-1H-pyrazolo[3,4-d]pyrimidin-1-yl]piperidine-1-carboxylate] | 9.15 | 5.25 | 5.11 | 8.22 | 7.44 |
| COC(=O)N1CCC(n2ncc3c(N4C5CCC4COC5)nc(-c4ccc(NC(=O)Nc5ccccc5)cc4)nc32)CC1 [Example 360, methyl 4-[4-(3-oxa-8-azabicyclo[3.2.1]oct-8-yl)-6-{4-[(phenylcarbamoyl)amino]phenyl}-1H-pyrazolo[3,4-d]pyrimidin-1-yl]piperidine-1-carboxylate] | 9.37 | 5.83 | 5.67 | 8.00 | 7.40 |
| COC(=O)N1CCC(n2ncc3c(N4C5CCC4COC5)nc(-c4ccc(NC(=O)Nc5cccnc5)cc4)nc32)CC1 [Example 361, methyl 4-[4-(3-oxa-8-azabicyclo[3.2.1]oct-8-yl)-6-{4-[(pyridin-3-ylcarbamoyl)amino]phenyl}-1H-pyrazolo[3,4-d]pyrimidin-1-yl]piperidine-1-carboxylate] | 9.78 | 5.74 | 5.39 | 8.70 | 7.70 |
| COC(=O)N1CCC(n2ncc3c(N4C5CCC4COC5)nc(-c4ccc(NC(=O)Nc5ccncc5)cc4)nc32)CC1 [Example 362, methyl 4-[4-(3-oxa-8-azabicyclo[3.2.1]oct-8-yl)-6-{4-[(pyridin-4-ylcarbamoyl)amino]phenyl}-1H-pyrazolo[3,4-d]pyrimidin-1-yl]piperidine-1-carboxylate] | 9.59 | 5.71 | 5.70 | 8.52 | 8.00 |
| COC(=O)N1CCC(n2ncc3c(N4C5CCC4COC5)nc(-c4ccc(NC(=O)Nc5ccc(N6CCN(C)CC6)cc5)cc4)nc32)CC1 [Example 363, methyl 4-{6-[4-({[4-(4-methylpiperazin-1-yl)phenyl]carbamoyl}amino)phenyl]-4-(3-oxa-8-azabicyclo[3.2.1]oct-8-yl)-1H-pyrazolo[3,4-d]pyrimidin-1-yl}piperidine-1-carboxylate] | 9.26 | 5.80 | 5.49 | > 9.00 | 9.00 |
| COC(=O)N1CCC(n2ncc3c(N4C5CCC4COC5)nc(-c4ccc(NC(=O)Nc5ccc(N6CCNCC6)cc5)cc4)nc32)CC1 [Example 364, methyl 4-[4-(3-oxa-8-azabicyclo[3.2.1]oct-8-yl)-6-(4-{[(4-piperazin-1-ylphenyl)carbamoyl]amino}phenyl)-1H-pyrazolo[3,4-d]pyrimidin-1-yl]piperidine-1-carboxylate] | 9.36 | 5.91 | 6.02 | 9.00 | 8.40 |
| COC(=O)N1CCC(n2ncc3c(N4C5CCC4COC5)nc(-c4ccc(NC(=O)Nc5ccc(N6CCN(C)CC6)nc5)cc4)nc32)CC1 [Example 365, methyl 4-{6-[4-({[6-(4-methylpiperazin-1-yl)pyridin-3-yl]carbamoyl}amino)phenyl]-4-(3-oxa-8-azabicyclo[3.2.1]oct-8-yl)-1H-pyrazolo[3,4-d]pyrimidin-1-yl}piperidine-1-carboxylate] | 9.10 | 5.59 | 5.34 | 8.40 | 7.92 |
| COC(=O)N1CCC(n2ncc3c(N4C5CCC4COC5)nc(-c4ccc(NC(=O)Nc5ccc(CN(C)C)cc5)cc4)nc32)CC1 [Example 366] | 9.10 | 5.68 | 5.82 | 8.00 | 7.70 |
| COC(=O)N1CCC(n2ncc3c(N4C5CCC4COC5)nc(-c4ccc(NC(=O)Nc5ccc(CN6CCN(C)CC6)cc5)cc4)nc32)CC1 [Example 367, methyl 4-[6-{4-[({4-[(4-methylpiperazin-1-yl)methyl]phenyl}carbamoyl)amino]phenyl}-4-(3-oxa-8-azabicyclo[3.2.1]oct-8-yl)-1H-pyrazolo[3,4-d]pyrimidin-1-yl]piperidine-1-carboxylate] | 9.06 | 5.62 | 5.74 | 9.00 | 7.89 |
| COC(=O)N1CCC(n2ncc3c(N4C5CCC4COC5)nc(-c4ccc(NC(=O)Nc5ccc(OCCN(C)C)cc5)cc4)nc32)CC1 [Example 368, methyl 4-[6-{4-[({4-[2-(dimethylamino)ethoxy]phenyl}carbamoyl)amino]phenyl}-4-(3-oxa-8-azabicyclo[3.2.1]oct-8-yl)-1H-pyrazolo[3,4-d]pyrimidin-1-yl]piperidine-1-carboxylate] | 9.05 | 5.93 | 5.70 | 9.00 | 8.40 |
| CN1CCN(C2CCC(n3ncc4c(N5CC6CCC(C5)O6)nc(-c5ccc(NC(=O)OCCO)cc5)nc43)CC2)CC1 (centres unmarked) [Example 369, 2-hydroxyethyl (4-{1-[4-(4-methylpiperazin-1-yl)cyclohexyl]-4-(8-oxa-3-azabicyclo[3.2.1]oct-3-yl)-1H-pyrazolo[3,4-d]pyrimidin-6-yl}phenyl)carbamate] | 8.80 | 5.50 | 4.93 | 6.66 | 6.12 |
